The values that follow come from patent publication US11160871B2, “SSTR-targeted conjugates and particles and formulations thereof” (TARVEDA THERAPEUTICS, INC., priority 2015, dated 2021).

SMILES strings stand for the structures. pIC50: −log10 of the molar value. Read-outs that look alike come from different tables or passages of the source.

The test relates to NCI-H524 human small cell lung cancer cells. The test is described as follows: cells. The test is classed as cell-based. As for the experimental part:
Conjugates of the present invention were assessed in an in vitro assay evaluating inhibition of cell proliferation. NCI-H524 (ATCC) human small cell lung cancer cells were plated in 96 well, V-bottomed plates (Costar) at a concentration of 5,000 cells/well. 24 hours later, cells were treated with either conjugate for 2 hours and further incubated 70 hours, or for octreotide competition experiments, treated with 100 μM octreotide for 30 min, and then treated with conjugate for 2 hours, and further incubated for 70 hours. Conjugate starting dose was 20 μM and three fold serial dilutions were done for a total of ten points. After 2 hours of treatment, cells were spun down, the drug containing media was removed, and fresh complete medium was added and used to resuspend the cells, which were spun again. After removal of the wash media, the cells were resuspended in complete medium, and then transferred into white walled, flat bottomed 96 well plates. […] Proliferation was measured using CellTiter Glo reagent using the standard protocol (Promega) and a Glomax multi+ detection system (Promega). Percent proliferation inhibition was calculated using the following formula: % inhibition=(control−treatment)/control*100. Control is defined as vehicle alone. IC50 curves were generated using the nonlinear regression analysis (four parameter) with GraphPad Prism 6.

Setting [1] is: 2 hours treatment, 70 hours further incubation, read-out: H524 IC50.
Where [2] appears, read: read-out: H524 IC50+ 100 uM octreotide, 100 μM octreotide for 30 min before conjugate.

Regarding `COc1cc2cc(c1Cl)N(C)C(=O)C[C@H](OC(=O)[C@H](C)N(C)C(=O)CCSC1CC(=O)N(CCCNC(=O)CC[C@H](NC(=O)[C@@H]3CSSC[C@H](NC(=O)[C@H](N)Cc4ccccc4)C(=O)N[C@@H](Cc4ccc(O)cc4)C(=O)N[C@H](Cc4c[nH]c5ccccc45)C(=O)N[C@@H](CCCCN)C(=O)N[C@@H]([C@@H](C)O)C(=O)N3)C(=O)NCCCN3C(=O)CC(SCCC(=O)N(C)[C@@H](C)C(=O)O[C@H]4CC(=O)N(C)c5cc(cc(OC)c5Cl)C/C(C)=C/C=C/[C@@H](OC)[C@@]5(O)C[C@H](OC(=O)N5)[C@@H](C)[C@@H]5O[C@@]45C)C3=O)C1=O)[C@]1(C)O[C@H]1[C@H](C)[C@@H]1C[C@@](O)(NC(=O)O1)[C@H](OC)/C=C/C=C(\C)C2` (single isomer, unassigned) [Conjugate 53], the negative-log IC50 (pIC50) was 7.38 under setting [1] and 6.76 under setting [2].
The corresponding values for `COc1cc2cc(c1Cl)N(C)C(=O)C[C@H](OC(=O)[C@H](C)N(C)C(=O)CCSSC(C)CCN[C@H](Cc1ccccc1)C(=O)N[C@H]1CSSC[C@@H](C(=O)N[C@H](CO)[C@@H](C)O)NC(=O)[C@H]([C@@H](C)O)NC(=O)[C@H](CCCCN)NC(=O)[C@@H](Cc3c[nH]c4ccccc34)NC(=O)[C@H](Cc3ccccc3)NC1=O)[C@]1(C)O[C@H]1[C@H](C)[C@@H]1C[C@@](O)(NC(=O)O1)[C@H](OC)/C=C/C=C(\C)C2` (single isomer, unassigned) [Conjugate 82] are 6.83 and 6.06.
The like results for `CCCCCCCCCCC(CCN[C@H](Cc1ccccc1)C(=O)N[C@H]1CSSC[C@@H](C(=O)N[C@@H](Cc2c[nH]c3ccccc23)C(N)=O)NC(=O)[C@H](C(C)C)NC(=O)[C@H](CCCCN)NC(=O)[C@@H](Cc2c[nH]c3ccccc23)NC(=O)[C@H](Cc2ccc(O)cc2)NC1=O)SSCCC(=O)N(C)[C@@H](C)C(=O)O[C@H]1CC(=O)N(C)c2cc(cc(OC)c2Cl)C/C(C)=C/C=C/[C@@H](OC)[C@@]2(O)C[C@H](OC(=O)N2)[C@@H](C)[C@@H]2O[C@@]12C` (single isomer, unassigned) [Conjugate 102] were, in that order, 6.47 and 6.24.
The like results for `COc1cc2cc(c1Cl)N(C)C(=O)C[C@H](OC(=O)[C@H](C)N(C)C(=O)CCSC1CC(=O)N(CC3CCC(C(=O)N[C@H](Cc4ccccc4)C(=O)N[C@H]4CSSC[C@@H](C(=O)N[C@H](CO)[C@@H](C)O)NC(=O)[C@H]([C@@H](C)O)NC(=O)[C@H](CCCCN)NC(=O)[C@@H](Cc5c[nH]c6ccccc56)NC(=O)[C@H](Cc5ccccc5)NC4=O)CC3)C1=O)[C@]1(C)O[C@H]1[C@H](C)[C@@H]1C[C@@](O)(NC(=O)O1)[C@H](OC)/C=C/C=C(\C)C2` (single isomer, unassigned) [Conjugate 104] were, in that order, 6.55 and 6.15.
On to `COc1cc2cc(c1Cl)N(C)C(=O)C[C@H](OC(=O)[C@H](C)N(C)C(=O)CCSC1CC(=O)N(CC(=O)N[C@H](Cc3ccccc3)C(=O)N[C@H]3CSSC[C@@H](C(=O)N[C@H](CO)[C@@H](C)O)NC(=O)[C@H]([C@@H](C)O)NC(=O)[C@H](CCCCN)NC(=O)[C@@H](Cc4c[nH]c5ccccc45)NC(=O)[C@H](Cc4ccccc4)NC3=O)C1=O)[C@]1(C)O[C@H]1[C@H](C)[C@@H]1C[C@@](O)(NC(=O)O1)[C@H](OC)/C=C/C=C(\C)C2` (single isomer, unassigned) [Conjugate 108], for which the pIC50 reads like this: under setting [1], 7.02; under setting [2], 5.89.
The like results for `COc1cc2cc(c1Cl)N(C)C(=O)C[C@H](OC(=O)[C@H](C)N(C)C(=O)CCSSCCC(=O)N[C@H](Cc1ccccc1)C(=O)N[C@H]1CSSC[C@@H](C(=O)N[C@H](CO)[C@@H](C)O)NC(=O)[C@H]([C@@H](C)O)NC(=O)[C@H](CCCCN)NC(=O)[C@@H](Cc3c[nH]c4ccccc34)NC(=O)[C@H](Cc3ccccc3)NC1=O)[C@]1(C)O[C@H]1[C@H](C)[C@@H]1C[C@@](O)(NC(=O)O1)[C@H](OC)/C=C/C=C(\C)C2` [Conjugate 4] were, in that order, 6.44 and 6.07.
